Laboratory results from patent US4176009A, “Method of measuring collagenase activity” (Ajinomoto Co., Inc., priority 1976, dated 1979).
Non-standard residues stand in square brackets, D forms with d. Residues, ends and D or L forms follow the SMILES beside them. *: point of attachment. X1 = O=S(=O)(c1ccc(N=Nc2ccc(O)c3ccccc23)cc1)*; X2 = O=C(c1ccc(N=Nc2ccccc2)cc1)*

What was measured:
purified collagenase [1] = test: Hydrolysis of NABS-peptide by purified collagenase (Example 16); assay type: biochemical, tadpole; conditions: 5×10^-4 M in 20% ethanol-Tris-HCl pH 7.8, collagenase 17.4 U/ml, 60 minutes at 37° C.
Experimental: (§1) Purified collagenase used in Examples was prepared from cultured media of tadpole skin explants as described in Biochem. Biophs. Acta, 263 564(1972), and non-specific peptidases were prepared by subjecting 5 ml of fresh adult human serum to chromatography on a calibrated Sephadex G-200 superfine gel column equilibrated with 0.05 M Tris-HCl buffer, pH 7.5, containing 0.15 M NaCl and 5 mM CaCl2, and gathering the effluent fractions corresponding to molecular weights of 100,000-180,000.
NABS-Pro-Gln-Gly-Ile-Ala-Gly-Gln-D-Arg-OH was dissolved in 20% ethanol-0.05 M Tris-HCl buffer, pH 7.8, containing 0.15 M NaCl and 5 mM CaCl2 to make a concentration of 5×10^-4 M. 0.5 ml of the solution was mixed with 0.1 ml of the purified collagenase (17.4 U/ml) and incubated for 60 minutes at 37° C. After stopping the enzyme reaction by adding 0.1 ml of 5 N-hydrochloric acid, the NABS-peptide fragments released were extracted with 1 ml ethyl acetate, followed by centrifugation at 3,000-5,000 rpm and room temperature for 10 minutes. The degree of hydrolysis was determined by measuring the absorbance of the organic layer at 389 nm.

purified collagenase [2] = test: Hydrolysis of PAB-peptide by purified collagenase (Example 17); assay type: biochemical, tadpole; conditions: 5×10^-4 M in Tris-HCl pH 7.8, collagenase 17.4 U/ml, 60 minutes at 37° C.
Experimental: as §1
PAS-Pro-Gln-Gly-Ile-Ala-Gly-Gln-D-Arg-OH was dissolved in 0.05 M Tris-HCl buffer, pH 7.8, containing 0.15 M NaCl and 5 mM CaCl2 to make a concentration of 5×10^-4 M. 0.1 ml of the solution was mixed with 0.1 ml of the purified collagenase (17.4 U/ml) and incubated for 60 minutes at 37° C. After stopping the enzyme reaction by adding 0.5 ml of 1 N hydrochloric acid, the PAB-peptide fragments released were extracted with 1 ml ethyl acetate after saturated with sodium chloride, and worked up as in Example 16. The degree of hydrolysis was determined by measuring the absorbance of the organic layer at 325 nm.

SMILES | degree of hydrolysis, OD389/hr/ml (purified collagenase [1]) [OD389/hr/ml] | degree of hydrolysis, OD325/hr/ml (purified collagenase [2]) [OD325/hr/ml]
CC[C@H](C)[C@H](NC(=O)CNC(=O)[C@H](CCC(N)=O)NC(=O)[C@@H]1CCCN1S(=O)(=O)c1ccc(N=Nc2ccc(O)c3ccccc23)cc1)C(=O)N[C@@H](C)C(=O)NCC(=O)N[C@@H](CCC(N)=O)C(=O)N[C@H](CCCNC(=N)N)C(=O)O [Example 2, NABS-Pro-Gln-Gly-Ile-Ala-Gly-Gln-D-Arg-OH] (X1-PQGIAGQ[dR]-OH) | 0.100 | –
CC[C@H](C)[C@H](NC(=O)CNC(=O)[C@H](CCC(N)=O)NC(=O)[C@@H]1CCCN1C(=O)c1ccc(N=Nc2ccccc2)cc1)C(=O)N[C@@H](C)C(=O)NCC(=O)N[C@@H](CCC(N)=O)C(=O)N[C@H](CCCNC(=N)N)C(=O)O [Example 3, PAB-Pro-Gln-Gly-Ile-Ala-Gly-Gln-D-Arg-OH] (X2-PQGIAGQ[dR]-OH) | – | 1.117
